Experimental data from US5843941A, “Ras farnesyl transferase inhibitors” (Genentech, Inc., priority 1994, dated 1998).
Like-named read-outs stand apart in the source and are kept apart here.

Molecular target: CAAX farnesyltransferase (Rattus norvegicus, UniProt Q02293+Q04631)
Assay: In vitro inhibition of CAAX farnesyltransferase
Assay type: biochemical
Design: purified to homogeneity from rat brain homogenates; from tissue; host or cells: rat brain; alternatively recombinant enzyme from a baculovirus expression system
Details: Table D
Experimental: All compounds were tested for in vitro inhibition of CAAX protein farnesyltransferase. […] Alternatively, recombinant CAAX protein farnesyltransferase was also used in this assay. […] Seventy-two hrs after infection, the cells were harvested and disrupted and the enzyme isolated by chromatography on Q-Sepharose.
After incubation for 30 min at 37° C., the amount of [3H]famesyl group transferred to p21H-ras was measured by precipitation with SDS/trichloroacetic acid, filtration onto nitrocellulose, and scintillation counting.
Structures of the compounds tested are reproduced below. Compound numbers also refer to example numbers above.

[1] = diastereomer A, read-out: EC50 (μM) "A"
[2] = diastereomer B, read-out: EC50 (μM) "B"

Chain of CAAX farnesyltransferase (Q02293 whole entry, one chain of several): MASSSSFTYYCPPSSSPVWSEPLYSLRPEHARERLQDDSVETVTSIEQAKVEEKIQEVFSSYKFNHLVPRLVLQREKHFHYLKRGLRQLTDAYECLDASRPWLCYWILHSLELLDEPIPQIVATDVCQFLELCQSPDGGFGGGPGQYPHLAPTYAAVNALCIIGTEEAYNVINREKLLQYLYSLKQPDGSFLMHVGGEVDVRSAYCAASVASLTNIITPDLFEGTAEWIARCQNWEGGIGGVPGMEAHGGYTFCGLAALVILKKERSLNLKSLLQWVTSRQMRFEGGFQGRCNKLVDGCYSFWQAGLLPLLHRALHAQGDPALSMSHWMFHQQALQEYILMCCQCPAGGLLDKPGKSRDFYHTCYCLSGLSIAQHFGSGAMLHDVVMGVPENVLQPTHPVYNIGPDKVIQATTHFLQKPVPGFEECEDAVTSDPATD

SMILES	EC50 [1] [µM]	EC50 [2] [µM]	EC50 (EC50 (μM) "A", diastereomer A) [µM]	EC50 (EC50 (μM) "B", diastereomer B) [µM]
CSCC[C@H](NC(=O)CN1C(=O)C(N(C)C(=O)[C@@H](N)CS)N=C(c2ccccc2)c2ccccc21)C(N)=O (stereo partly drawn) [compound 33, N-[[3-[(2-amino-3-mercapto-1-oxopropyl)methylamino]-2,3-dihydro-2-oxo-5phenyl-1H-1,4-benzodiazepin-1-yl]acetyl]-L-methionine amide]	2.2	0.019		
C[C@H](NC(=O)CN1C(=O)C(N(C)C(=O)[C@@H](N)CS)N=C(c2ccccc2)c2ccccc21)C(=O)O (stereo partly drawn) [compound 35, N-[[3-[(2-amino-3-mercapto-1-oxopropyl)methylamino]-2,3dihydro-2-oxo-5-phenyl-1H-1,4-benzodiazepin-1-yl]acetyl]-L-alanine]	> 10	0.022		
CN(C(=O)[C@@H](N)CS)C1N=C(c2ccccc2)c2ccccc2N(CC(=O)N2CCC[C@H]2C(=O)O)C1=O (stereo partly drawn) [compound 36, N-[[3-[(2-amino-3-mercapto-1-oxopropyl)methylamino]-2,3-dihydro-2-oxo-5-phenyl-1H-1,4-benzodiazepin-1-yl]acetyl]-L-proline]	> 10	0.048		
CCOC(=O)[C@H](CCSC)NC(=O)CN1C(=O)C(N(C)C(=O)[C@@H](N)CS)N=C(c2ccccc2)c2ccccc21 (stereo partly drawn) [compound 39]	8	0.11		
CSCC[C@H](NC(=O)CN1C(=O)C(N(C)C(=O)[C@@H](N)CS)N=C(c2ccccc2)c2ccccc21)C(=O)OC1CCCCC1 (stereo partly drawn) [compound 41]	4.2	0.074		
CCN[C@@H](CS)C(=O)N(C)C1N=C(c2ccccc2)c2ccccc2N(CC(=O)N[C@@H](CCSC)C(=O)O)C1=O (stereo partly drawn) [compound 42, N-[[3-[(2-ethylamino-3-mercapto-1-oxopropyl)methylamino]-2,3-dihydro-2-oxo-5-phenyl-1H-1,4-benzodiazepin-1-yl]acetyl]-L-methionine]	0.58	0.018		
CN(C(=O)[C@@H](N)CS)C1N=C(c2ccccc2)c2ccccc2N(CC(=O)N[C@@H](CS)C(=O)O)C1=O (stereo partly drawn) [compound 44, N-[[3-[(2-Amino-3-mercapto-1-oxopropyl)methylamino]-2,3-dihydro-2-oxo-5phenyl-1H-1,4-benzodiazepin-1-yl]acetyl]-L-cysteine]	3	0.0045		
CSCC[C@H](NC(=O)CN1C(=O)C(N(C)C(=O)[C@@H](N)CO)N=C(c2ccccc2)c2ccccc21)C(=O)O (stereo partly drawn) [compound 45, N-[[3-[(2-amino-3-hydroxy-1-oxopropyl)methylamino]-2,3-dihydro-2-oxo-5-phenyl-1H-1,4-benzodiazepin-1-yl]acetyl]-L-methionine]	> 10	> 10		
CSCC[C@H](NC(=O)CN1C(=O)C(N(C)C(=O)[C@@H](N)CS)N=C(c2ccccc2)c2ccccc21)c1nnn[nH]1 (stereo partly drawn) [compound 47, N-[[3-[(2-amino-3-mercapto-1-oxopropyl)methylamino]-2,3-dihydro-2-oxo-5-phenyl-1H-1,4-benzodiazepin-1-yl]acetyl]-L-methionine tetrazole]			0.044	0.0046
CSCC[C@H](NC(=O)CCN1C(=O)C(N(C)C(=O)[C@@H](N)CS)N=C(c2ccccc2)c2ccccc21)C(=O)O (stereo partly drawn) [compound 48]	2.5	0.004		
CSCC[C@](C)(NC(=O)CN1C(=O)C(N(C)C(=O)[C@@H](N)CS)N=C(c2ccccc2)c2ccccc21)C(=O)O (stereo partly drawn) [compound 49, N-[[3-[(2-amino-3-mercapto-1-oxopropyl)methylamino]-2,3-dihydro-2-oxo-5-phenyl-1H-1,4-benzodiazepin-1-yl]acetyl]-(α-methyl)-methionine]	0.74	0.006		
CC(C)[C@H](NC(=O)CN1C(=O)C(N(C)C(=O)[C@@H](N)CS)N=C(c2ccccc2)c2ccccc21)C(=O)O (stereo partly drawn) [compound 50, N-[[3-[(2-amino-3-mercapto-1-oxopropyl)methylamino]-2,3-dihydro-2-oxo-5-phenyl-1H-1,4benzodiazepin-1-yl]acetyl]-L-valine]	> 3	0.0008		
C[C@@H](O)[C@H](NC(=O)CN1C(=O)C(N(C)C(=O)[C@@H](N)CS)N=C(c2ccccc2)c2ccccc21)C(=O)O (stereo partly drawn) [compound 51, N-[[3-[(2-amino-3-mercapto-1-oxopropyl)methylamino]-2,3-dihydro-2-oxo-5-phenyl-1H-1,4-benzodiazepin-1-yl]acetyl]-L-threonine]	> 3	0.0017		
CN(C(=O)[C@@H](N)CS)C1N=C(c2ccccc2)c2ccccc2N(CC(=O)N[C@@H](CCC(N)=O)C(=O)O)C1=O (stereo partly drawn) [compound 52, N-[[3-[(2-amino-3-mercapto-1-oxopropyl)methylamino]-2,3-dihydro-2-oxo-5-phenyl-1H-1,4-benzodiazepin-1-yl]acetyl]-L-glutamine]	> 3	0.0018		
CN(C(=O)[C@@H](N)CS)C1N=C(c2ccccc2)c2ccccc2N(CC(=O)NCC(=O)O)C1=O (stereo partly drawn) [compound 53, N-[[3-[(2-amino-3-mercapto-1-oxopropyl)methylamino]-2,3-dihydro-2-oxo-5-phenyl-1H-1,4-benzodiazepin-1-yl]acetyl]-glycine]	> 3	0.0004		
CN(C(=O)[C@@H](N)CS)C1N=C(c2ccccc2)c2ccccc2N(CC(=O)N[C@@H](Cc2ccc(O)cc2)C(=O)O)C1=O (stereo partly drawn) [compound 54, N-[[3-[(2-amino-3-mercapto-1-oxopropyl)methylamino]-2,3-dihydro-2-oxo-5-phenyl-1H-1,4-benzodiazepin-1-yl]acetyl]-L-tyrosine]	1.5	0.004		
CN(C(=O)[C@@H](N)CS)C1N=C(c2ccccc2)c2ccccc2N(CC(=O)N[C@@H](CC2CCCCC2)C(=O)O)C1=O (stereo partly drawn) [compound 57, N-[[3-[(2-amino-3-mercapto-1-oxopropyl)methylamino]-2,3-dihydro-2-oxo-5-phenyl-1H-1,4-benzodiazepin-1-yl]acetyl]-(β-cyclohexyl)-L-alanine]	2	0.0015		
CN(C(=O)[C@@H](N)CS)C1N=C(c2ccccc2)c2ccccc2N(CC(=O)N[C@H](C(=O)O)C2CCCCC2)C1=O (stereo partly drawn) [compound 58, N-[[3-[(2-amino-3-mercapto-1-oxopropyl)methylamino]-2,3-dihydro-2-oxo-5-phenyl-1H-1,4-benzodiazepin-1-yl]acetyl]-(α-cyclohexyl)-glycine]	1.1	0.0006		
CN(C(=O)[C@@H](N)CS)C1N=C(c2ccccc2)c2ccccc2N(CC(=O)N[C@@H](CCc2ccccc2)C(=O)O)C1=O (stereo partly drawn) [compound 59, N-[[3-[-(2-amino-3-mercapto-1-oxopropyl)methylamino]-2,3-dihydro-2-oxo-5-phenyl-1H-1,4-benzodiazepin-1-yl]acetyl]-L-homo-phenylalanine]	1.1	0.0012		
CN(C(=O)[C@@H](N)CS)C1N=C(c2ccccc2)c2ccccc2N(CC(=O)N[C@@H](Cc2ccc(F)cc2)C(=O)O)C1=O (stereo partly drawn) [compound 60]	0.94	0.0005		
CN(C(=O)[C@@H](N)CS)C1N=C(c2ccccc2)c2ccccc2N(CC(=O)N[C@@H](Cc2ccc(-c3ccccc3)cc2)C(=O)O)C1=O (stereo partly drawn) [compound 61, N-[[3-[(2-amino-3-mercapto-1-oxopropyl)methylamino]-2,3-dihydro-2-oxo-5-phenyl-1H-1,4-benzodiazepin-1-yl]acetyl]-(β-biphenyl)-L-alanine]	1.7	0.0035		
